# Read-outs that look alike come from different tables or passages of the source.
# Experiments:
# [1] = tested on: platelets; assay: Example 4: platelet activation measured by flow cytometry; type: in vivo, human; details: P-selectin expression, 1 μM ADP
# Experimental: The study involved 12 patients who met the criteria of being 18-75 years of age, having coronary artery disease (CAD) documented by a previous MI or coronary revascularization, and taking 81 mg of aspirin daily. […] Prohibited concomitant medications included strong and potent CYP3A inhibitors, simvastatin and lovastatin at doses more than 40 mg/day, omeprazole or esomeprazole, and digoxin. Use of non-steroidal anti-inflammatory agents was discouraged during study participation but not prohibited.
# Each patient was administered a 30 μg/kg bolus of cangrelor followed immediately by a 2 hr infusion at a rate of 4.0 μg/kg/min. A loading dose of ticagrelor (180 mg) was given after 0.5 hr or 1.25 hr (n=6 for each). Blood for pharmacodynamic platelet function studies was taken after 0.5 or 1.25 hr (corresponding to the time of ticagrelor load, n=6 for each), and then at 1.75, 2, 2.25, 2.5, 2.75, 3, 4, and 5.25 hr. Patients were assigned randomly to receive either 6 (n=6) or 7 (n=6) doses of ticagrelor to be taken every 12 hours following the discontinuation of the infusion of cangrelor. On study day 5, each patient was administered a 30 μg/kg bolus of cangrelor followed immediately by a 2 hr infusion at a rate of 4.0 μg/kg/min. Blood for pharmacodynamic assessment was taken after 1 and 2 hr. Adverse events were queried throughout study participation that ended with a telephone interview performed on study day 10-12.
# Pharmacodynamic assessment included light transmission aggregometry (LTA), VerifyNow® P2Y12 assay, vasodilator-stimulated phosphoprotein (VASP) index, and platelet activation measured with the use of flow cytometry. Assessment of LTA, VerifyNow®, and platelet activation with the use of flow cytometry was performed within 30 min of blood being taken. In the case of flow cytometry, samples were processed to fixation and then batched for analysis. For VASP, index samples were batched and processed as recommended by the vendor within 2 h of blood being taken. This approach limited the time from fixation of VASP index to flow analysis to less than 1 h.
# LTA induced by 5 μM and 20 μM adenosine diphosphate (ADP) was quantified ex vivo (i.e. in non-adjusted platelet rich plasma). Platelet-poor plasma was set as 100% aggregation, and both maximal (peak) and terminal (at 300 s) aggregation were measured with a PAP4 aggregometer (BioData, Horsham, Pa.). VerifyNow® P2Y12 assay (Accumetrics Inc, San Diego, Calif.) that measures the effects of drugs on the P2Y12 receptor by activating platelets with prostaglandin El in addition to ADP was used in accordance with the instructions provided by the manufacturer. Platelet reactivity was expressed in P2Y12 reaction units (PRU). Activation of platelets was identified with the use of flow cytometry as previously described.^17. And to determine the VASP index, a commercially available kit (Diagnostica Stago, Inc, Parsippany NJ) was used. ^17 Schneider D J, Sobel B E. Streamlining the design of promising clinical trials: in-vitro testing of antithrombotic regimens and multiple agonists of platelet activation. Coron Artery Dis. 2009; 20:175-8.
# [2] = tested on: patients with atherosclerosis undergoing PCI
# Experimental: The protocol called for aspirin (75 to 325 mg) to be administered to all patients. […] The choice of a periprocedural anticoagulant (bivalirudin, unfractionated heparin, low-molecular-weight heparin, or fondaparinux) was also at the discretion of the investigator. Glycoprotein IIb/IIIa inhibitors were allowed only as rescue therapy during PCI to treat new or persistent thrombus formation, slow or no reflow, side-branch compromise, dissection, or distal embolization. The investigator at the site determined the protocol for management of the arterial sheath.
# The inclusion criteria for the trial were men or nonpregnant women, 18 years of age or older with coronary atherosclerosis who required PCI for stable angina, a non-ST-segment elevation acute coronary syndrome, or ST-segment elevation myocardial infarction (STEMI). Patients were required to provide written informed consent.
# Major exclusion criteria were receipt of a P2Y12 inhibitor or abciximab at any time in the 7 days before randomization and receipt of eptifibatide or tirofiban or fibrinolytic therapy in the 12 hours before randomization.
# The primary efficacy end point was the composite rate of death from any cause, myocardial infarction, IDR, or stent thrombosis in the 48 hours after randomization in the modified intention-to-treat population (which comprised patients who actually underwent PCI and received the study drug). […] The key secondary end point was the incidence of stent thrombosis at 48 hours. This end point included definite stent thrombosis, defined according to the criteria of the Academic Research Consortium, or intraprocedural stent thrombosis, which was assessed, with group assignments concealed, at an angiographic core laboratory (Cardiovascular Research Foundation). Intraprocedural stent thrombosis was defined as any new or worsened thrombus related to the stent procedure that was confirmed angiographically. Events of death, myocardial infarction, IDR, and stent thrombosis that occurred during the first 30 days after randomization were adjudicated by the clinical events committee at the Duke Clinical Research Institute. The study adhered to the universal definition of myocardial infarction for myocardial infarction unrelated to PCI but expanded on the definition of PCI-related myocardial infarction.
# The numbers and percentages of patients within each analysis population (modified intention-to-treat, intention-to-treat, and safety) were summarized according to treatment group. The primary efficacy analysis of the rate of the composite end point of death from any cause, myocardial infarction, IDR, or stent thrombosis (with all events adjudicated by the clinical events committee) in the 48 hours after randomization was conducted in the modified intention-to-treat population. The primary safety analysis was conducted in the safety population, which comprised all patients who underwent randomization and received at least one dose of the study drug; patients were classified according to the actual treatment received. All calculations and statistical analyses were performed with the use of SAS software, version 9.2.
# [3] = Study Day 1, 1.75 h, Ticagrelor at 0.5 hr
# [4] = Study Day 1, 1.75 h, Ticagrelor at 1.25 hr
# [5] = Study Day 1, 2.0 h, Ticagrelor at 0.5 hr
# [6] = Study Day 1, 2.0 h, Ticagrelor at 1.25 hr
# [7] = Study Day 1, reference 0.5/1.25 h, All
# [8] = Study Day 1, reference 0.5/1.25 h, Ticagrelor at 0.5 hr
# [9] = Study Day 1, reference 0.5/1.25 h, Ticagrelor at 1.25 hr
# [10] = Study Day 5, 1.0 h, Ticagrelor 6 doses
# [11] = Study Day 5, 1.0 h, Ticagrelor 7 doses
# [12] = Study Day 5, 2.0 h, Ticagrelor 6 doses
# [13] = Study Day 5, 2.0 h, Ticagrelor 7 doses
# [14] = 48 hours, ITT, Cangrelor vs Clopidogrel
# [15] = 48 hours, ITT, rate in parentheses
# [16] = 48 hours, modified intention-to-treat, Cangrelor vs Clopidogrel
# [17] = 30 days, cangrelor vs clopidogrel
# [18] = 30 days, modified intention-to-treat population
# [19] = 30 days, modified intention-to-treat, Cangrelor vs Clopidogrel
smiles,measurement,setting,value
"CSCCNc1nc(SCCC(F)(F)F)nc2c1ncn2[C@@H]1O[C@H](COP(=O)(O)OP(=O)(O)C(Cl)(Cl)P(=O)(O)O)[C@@H](O)[C@H]1O [Cangrelor, cangrelor]",Flow Cytometry IPR,"[1]; Study Day 1, 1.75 h, All",94 ± 5
same,Flow Cytometry PR,"[1]; Study Day 1, 1.75 h, All",2.5 ± 1
same,Flow Cytometry IPR,[1]; [3],96 ± 2
same,Flow Cytometry PR,[1]; [3],2 ± 0.6
same,Flow Cytometry IPR,[1]; [4],92 ± 7
same,Flow Cytometry PR,[1]; [4],3 ± 1.1
same,Flow Cytometry IPR,"[1]; Study Day 1, 2.0 h, All",89 ± 30
same,Flow Cytometry PR,"[1]; Study Day 1, 2.0 h, All",3.8 ± 4.5
same,Flow Cytometry IPR,[1]; [5],96 ± 2
same,Flow Cytometry PR,[1]; [5],2.3 ± 0.8
same,Flow Cytometry IPR,[1]; [6],83 ± 28
same,Flow Cytometry PR,[1]; [6],5.3 ± 6.3
same,Flow Cytometry IPR,[1]; [7],94 ± 4
same,Flow Cytometry PR,[1]; [7],2.8 ± 1.2
same,Flow Cytometry IPR,[1]; [8],94 ± 5
same,Flow Cytometry PR,[1]; [8],3 ± 1.7
same,Flow Cytometry IPR,[1]; [9],94 ± 3
same,Flow Cytometry PR,[1]; [9],1.5 ± 0.5
same,Flow Cytometry IPR,"[1]; Study Day 5, 1.0 h, All",92 ± 4
same,Flow Cytometry PR,"[1]; Study Day 5, 1.0 h, All",4.1 ± 2.7
same,Flow Cytometry IPR,[1]; [10],91 ± 3
same,Flow Cytometry PR,[1]; [10],3.5 ± 1.4
same,Flow Cytometry IPR,[1]; [11],93 ± 5
same,Flow Cytometry PR,[1]; [11],4.7 ± 3.6
same,Flow Cytometry IPR,"[1]; Study Day 5, 2.0 h, All",95 ± 3
same,Flow Cytometry PR,"[1]; Study Day 5, 2.0 h, All",2.8 ± 1.3
same,Flow Cytometry IPR,[1]; [12],93 ± 3
same,Flow Cytometry PR,[1]; [12],2.7 ± 1.2
same,Flow Cytometry IPR,[1]; [13],96 ± 2
same,Flow Cytometry PR,[1]; [13],2.8 ± 1.5
same,"odds ratio, primary end point",[2]; 300-mg loading dose of clopidogrel,0.84
same,"odds ratio, primary end point",[2]; 600-mg loading dose of clopidogrel,0.77
same,number needed to treat to prevent one primary end-point event,[2]; 48 hours,84
same,rate of stent thrombosis (key secondary efficacy end point),[2]; 48 hours,0.8%
same,Death OR,[2]; [14],0.95
same,Death/MI OR,[2]; [14],0.80
same,Death/MI/IDR OR,[2]; [14],0.80
same,Death/MI/IDR/ST OR,[2]; [14],0.79
same,Death/MI/IDR/ST/GUSTO Severe Bleeding (NACE) OR,[2]; [14],0.80
same,Death/MI/ST OR,[2]; [14],0.79
same,Death/Q-wave MI/IDR OR,[2]; [14],0.77
same,Death/ST OR,[2]; [14],0.67
same,IDR OR,[2]; [14],0.76
same,MI OR,[2]; [14],0.80
same,Q-wave MI OR,[2]; [14],0.61
same,Stent thrombosis OR,[2]; [14],0.62
same,Death,"[2]; 48 hours, ITT, n/N",20/5573
same,Death/MI,"[2]; 48 hours, ITT, n/N",222/5573
same,Death/MI/IDR,"[2]; 48 hours, ITT, n/N",233/5573
same,Death/MI/IDR/ST,"[2]; 48 hours, ITT, n/N",260/5573
same,"Death/MI/IDR/ST/GUSTO Severe Bleeding (Net Adverse Clinical Events, NACE)","[2]; 48 hours, ITT, n/N",267/5573
same,Death/MI/ST,"[2]; 48 hours, ITT, n/N",251/5573
same,Death/Q-wave MI/IDR,"[2]; 48 hours, ITT, n/N",52/5573
same,Death/ST,"[2]; 48 hours, ITT, n/N",61/5573
same,IDR,"[2]; 48 hours, ITT, n/N",29/5573
same,MI,"[2]; 48 hours, ITT, n/N",207/5573
same,Q-wave MI,"[2]; 48 hours, ITT, n/N",11/5573
same,Stent thrombosis,"[2]; 48 hours, ITT, n/N",46/5573
same,Death,[2]; [15],(0.4)
same,Death/MI,[2]; [15],(4.0)
same,Death/MI/IDR,[2]; [15],(4.2)
same,Death/MI/IDR/ST,[2]; [15],(4.7)
same,"Death/MI/IDR/ST/GUSTO Severe Bleeding (Net Adverse Clinical Events, NACE)",[2]; [15],(4.8)
same,Death/MI/ST,[2]; [15],(4.5)
same,Death/Q-wave MI/IDR,[2]; [15],(0.9)
same,Death/ST,[2]; [15],(1.1)
same,IDR,[2]; [15],(0.5)
same,MI,[2]; [15],(3.7)
same,Q-wave MI,[2]; [15],(0.2)
same,Stent thrombosis,[2]; [15],(0.8)
same,"odds ratio, stent thrombosis","[2]; 48 hours, cangrelor vs clopidogrel",0.62
same,"odds ratio, primary composite efficacy end point","[2]; 48 hours, crude analysis, cangrelor vs clopidogrel",0.79
same,"odds ratio, primary composite efficacy end point","[2]; 48 hours, logistic regression adjusted for baseline status and clopidogrel loading dose, cangrelor vs clopidogrel",0.78
same,"rate of primary composite efficacy end point (death from any cause, myocardial infarction, IDR, or stent thrombosis)","[2]; 48 hours, modified intention-to-treat",4.7%
same,"Death from any cause, Odds Ratio (95% CI)",[2]; [16],1.00 (0.52-1.92)
same,"Death from cardiovascular causes, Odds Ratio (95% CI)",[2]; [16],1.00 (0.52-1.92)
same,"Death or stent thrombosis, Odds Ratio (95% CI)",[2]; [16],0.67 (0.48-0.94)
same,"Death, Q-wave myocardial infarction, or ischemia-driven revascularization, Odds Ratio (95% CI)",[2]; [16],0.76 (0.53-1.11)
same,Death/MI OR (95% CI),[2]; [16],"0.80 (0.67, 0.96)"
same,Death/MI/Definite ST OR (95% CI),[2]; [16],"0.80 (0.66, 0.95)"
same,Death/MI/IDR OR (95% CI),[2]; [16],"0.80 (0.67, 0.95)"
same,Death/MI/IDR/Definite ST OR (95% CI),[2]; [16],"0.80 (0.67, 0.95)"
same,Death/MI/ST OR (95% CI),[2]; [16],"0.79 (0.66, 0.94)"
same,Definite ST OR (95% CI),[2]; [16],"0.54 (0.27, 1.10)"
same,"Ischemia-driven revascularization, Odds Ratio (95% CI)",[2]; [16],0.74 (0.45-1.20)
same,"Key secondary end point: stent thrombosis, Odds Ratio (95% CI)",[2]; [16],0.62 (0.43-0.90)
same,"Myocardial infarction, Odds Ratio (95% CI)",[2]; [16],0.80 (0.67-0.97)
same,"Net adverse clinical events, Odds Ratio (95% CI)",[2]; [16],0.80 (0.68-0.94)
same,"Q-wave myocardial infarction, Odds Ratio (95% CI)",[2]; [16],0.61 (0.29-1.29)
same,"Primary end point: death from any cause, myocardial infarction, ischemia-driven revascularization, or stent thrombosis, Odds Ratio (95% CI)","[2]; 48 hours, modified intention-to-treat, Cangrelor vs Clopidogrel, logistic regression adjusted for baseline status and clopidogrel loading dose",0.78 (0.66-0.93)
same,net rate of adverse clinical events (primary efficacy plus primary safety end point),"[2]; 48 hours, post hoc",4.8%
same,"odds ratio, net adverse clinical events","[2]; 48 hours, post hoc, cangrelor vs clopidogrel",0.80
same,Stent thrombosis,[2]; 30 days,1.3%
same,rate of the composite efficacy end point,[2]; 30 days,6.0%
same,"odds ratio, composite efficacy end point",[2]; [17],0.85
same,"odds ratio, stent thrombosis",[2]; [17],0.68
same,Death from any cause,[2]; [18],(1.1) percent
same,"Death from any cause, myocardial infarction, ischemia-driven revascularization, or stent thrombosis",[2]; [18],(6.0) percent
same,Death from cardiovascular causes,[2]; [18],(0.9) percent
same,"Death from any cause, Odds Ratio",[2]; [19],1.09
same,"Death from cardiovascular causes, Odds Ratio",[2]; [19],1.04
same,"Ischemia-driven revascularization, Odds Ratio",[2]; [19],0.85
same,"Myocardial infarction, Odds Ratio",[2]; [19],0.82
same,"Q-wave myocardial infarction, Odds Ratio",[2]; [19],0.63
same,"Stent thrombosis, Odds Ratio",[2]; [19],0.68
same,"Death from any cause, myocardial infarction, ischemia-driven revascularization, or stent thrombosis, Odds Ratio","[2]; 30 days, modified intention-to-treat, Cangrelor vs Clopidogrel, adjusted logistic regression",0.85
same,"odds ratio, intraprocedural stent thrombosis",[2]; cangrelor vs clopidogrel,0.65
same,"odds ratio, procedural complications",[2]; cangrelor vs clopidogrel,0.74
same,"odds ratio, rescue therapy with a glycoprotein IIb/IIIa inhibitor",[2]; cangrelor vs clopidogrel,0.65
same,odds of an ischemic event lower than with clopidogrel,[2]; in vivo,22%
same,odds of stent thrombosis lower than with clopidogrel,[2]; in vivo,38%
same,rate of intraprocedural stent thrombosis,[2]; in vivo,0.6%
same,rate of procedural complications,[2]; in vivo,3.4%
same,use of rescue therapy with a glycoprotein IIb/IIIa inhibitor,[2]; in vivo,2.3%
same,"odds ratio, primary end point",[2]; infusion for 129 minutes or less,0.85
same,"odds ratio, primary end point",[2]; infusion for more than 129 minutes,0.72
same,"odds ratio, primary end point",[2]; patients who received the loading dose during or after PCI,0.79
same,"odds ratio, primary end point",[2]; patients who received the loading dose immediately before PCI,0.80

# Source: US8680052B1, “Methods of treating, reducing the incidence of, and/or preventing ischemic events” (The Medicines Company, priority 2013, dated 2014)
